From ChEMBL document CHEMBL1201862, “PubChem BioAssay data set” (2004)
The source made the active and inactive calls.

What was measured:
[1] = target: Glucose-6-phosphate 1-dehydrogenase (Homo sapiens, UniProt P11413); experiment: human G6PD enzyme inhibitors, dose response, selectivity assay for P. falciparum G6PD inhibitor project, biochemical, fluorescence (AID 504792); format: functional
Protein Wnt-3a = Protein Wnt-3a (Mus musculus, UniProt P27467); experiment: Wnt3a-driven reporter signaling inhibition, dose response, selectivity assay for Gli-SUFU antagonist project, Wnt-LIGHT cells, luminescence (AID 651570); format: functional; conditions: read-out: IC50_Mean;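 further: Wnt-LIGHT reporter cells stimulated with conditioned medium from Wnt3a-producing cells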
[2] = NIH-3T3 fibroblast cytotoxicity, dose response, cytotoxicity control, cell-based, fluorescence, Alamar Blue, secondary assay (AID 2327); format: functional;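 further: NIH-3T3 mouse fibroblasts cultured with fluconazole at 8 µg/mL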
[3] = C. albicans growth with fluconazole, confirmation, fluorescence, retest (AID 2467); format: functional, cell-based
[4] = target: T1, Serine/threonine-protein phosphatase (Candida dubliniensis (strain CD36 / CBS 7987 / NCPF 3949 / NRRLY-17841) (Yeast), UniProt B9W6M3); experiment: calcineurin pathway inhibitors in yeast reporter, dose response, S. cerevisiae, CDRE-lacZ, luminescence, secondary (AID 2388); format: functional, cell-based;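 further: yeast reporter cells carrying a calcineurin-responsive lacZ construct stimulated with calcium chloride; luminescent beta-galactosidase reporter signal in whole cells rather than isolated phosphatase activity; potency for inhibition where a drop in reporter signal means calcineurin blockade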
T1 sequence (B9W6M3 whole entry): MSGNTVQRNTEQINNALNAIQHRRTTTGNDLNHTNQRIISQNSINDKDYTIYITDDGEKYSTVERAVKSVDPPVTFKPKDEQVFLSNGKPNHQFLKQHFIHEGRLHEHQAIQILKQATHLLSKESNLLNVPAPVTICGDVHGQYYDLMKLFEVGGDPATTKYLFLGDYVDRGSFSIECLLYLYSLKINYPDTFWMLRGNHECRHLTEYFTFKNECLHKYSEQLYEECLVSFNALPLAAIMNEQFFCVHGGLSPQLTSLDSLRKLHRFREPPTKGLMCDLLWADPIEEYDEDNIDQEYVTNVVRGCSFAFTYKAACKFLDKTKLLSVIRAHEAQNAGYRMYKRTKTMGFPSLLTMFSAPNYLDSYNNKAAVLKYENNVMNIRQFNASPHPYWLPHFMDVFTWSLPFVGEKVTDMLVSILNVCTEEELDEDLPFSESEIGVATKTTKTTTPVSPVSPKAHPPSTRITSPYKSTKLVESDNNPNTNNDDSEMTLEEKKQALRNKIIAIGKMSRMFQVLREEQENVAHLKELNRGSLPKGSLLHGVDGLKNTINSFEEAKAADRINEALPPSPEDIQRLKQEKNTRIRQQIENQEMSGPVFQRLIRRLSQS

[5] = target: Voltage-dependent T-type calcium channel subunit alpha-1H (Homo sapiens, UniProt O95180); format: functional;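 further: channel activity triggered by adding a high calcium stimulation buffer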
H9c2 = experiment: cells; format: functional, cell-based; conditions: Rattus norvegicus, H9c2, Myocardium;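 further: confirmatory concentration-response retest of ultra-high-throughput screening hits for modulation of myocardial damage; cell death induced by hydrogen peroxide oxidative stress; compound pretreatment for 60 min then peroxide exposure for 2 h; potency is for protecting the cells against peroxide damage rather than for killing them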
Vero = experiment: cells; format: functional; conditions: Chlorocebus sabaeus
[6] = target: ATP-dependent molecular chaperone HSP82 (Candida albicans (strain WO-1) (Yeast), UniProt C4YTQ8); experiment: loss of DOC-induced GRE-beta-galactosidase reporter signal, dose response, Hsp90 inhibitor project, S. cerevisiae, luminescence (AID 2400); format: functional, cell-based;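 further: beta-galactosidase luminescence from glucocorticoid response element reporter as proxy for Hsp90 function; inhibitor potency where signal loss means Hsp90 inhibition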
[7] = NIH-3T3 fibroblast cytotoxicity, dose response, cytotoxicity control for antifungal single agent project, cell-based, Alamar Blue, dry powder (AID 602188); format: functional
[8] = inhibitors of HIV Env-driven cell fusion, dose response, cherry-pick (AID 652057); format: functional, cell-based
[9] = CEM21 lymphoblast cell cytotoxicity, dose response, cytotoxicity control for viral fusion inhibitor project, CellTiter-Glo luminescence, cherry-picked (AID 652042); format: functional, cell-based;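 further: potency for signal decrease meaning cytotoxicity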
[10] = ZM109 Env clade C HIV-1 fusion inhibitors, dose response, HeLa effector, CEM target cells, luciferase, cherry-pick (AID 652058); format: functional, cell-based
[11] = off-target signal loss in HeLa-CEM21 co-culture – HeLa F-luc CTL cells, cherry-picked, counter-screen for HIV-1 Env fusion inhibitor project, dose response (AID 652040); format: functional, cell-based;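 further: potency for signal decrease marking cytotoxic or nonspecific inhibition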
[12] = inhibitors of clade B AD8 Env fusion, dose response, cell-based, cherry-pick (AID 652062); format: functional;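 further: luciferase signal from cell-cell fusion driven by HIV-1 clade B AD8 Env; potency is for inhibitors of fusion seen as a drop in luminescence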
[13] = target: T2, Mitochondrial peptide methionine sulfoxide reductase (Bos taurus, UniProt P54149); format: functional;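 further: absorbance read-out, biochemical high-throughput dose-response screen for MsrA inhibitors, confirmatory; recombinant bovine MsrA coupled to E. coli TrxB with NADPH and selenocystamine; potency is for inhibitors of MsrA activity on DMSO substrate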
T2 sequence (P54149 whole entry): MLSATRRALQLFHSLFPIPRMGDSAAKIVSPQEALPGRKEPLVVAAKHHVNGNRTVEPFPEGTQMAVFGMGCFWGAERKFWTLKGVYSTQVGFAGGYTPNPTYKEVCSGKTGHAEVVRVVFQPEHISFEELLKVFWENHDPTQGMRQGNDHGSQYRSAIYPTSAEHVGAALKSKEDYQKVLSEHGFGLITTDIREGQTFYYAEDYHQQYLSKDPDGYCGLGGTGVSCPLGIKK

[14] = target: T3, Long-chain-fatty-acid--AMP ligase FadD28 (Mycobacterium tuberculosis, UniProt P9WQ59); experiment: Fluorescence polarization aasay to screen for inhibitors that compete for the binding of FadD28 to a bisubstrate Measured in Biochemical System Using Plate Reader - 2147-01_Inhibitor_Dose_CherryPick_Activity.; format: functional, Mycobacterium tuberculosis H37Rv
T3 sequence (P9WQ59 whole entry): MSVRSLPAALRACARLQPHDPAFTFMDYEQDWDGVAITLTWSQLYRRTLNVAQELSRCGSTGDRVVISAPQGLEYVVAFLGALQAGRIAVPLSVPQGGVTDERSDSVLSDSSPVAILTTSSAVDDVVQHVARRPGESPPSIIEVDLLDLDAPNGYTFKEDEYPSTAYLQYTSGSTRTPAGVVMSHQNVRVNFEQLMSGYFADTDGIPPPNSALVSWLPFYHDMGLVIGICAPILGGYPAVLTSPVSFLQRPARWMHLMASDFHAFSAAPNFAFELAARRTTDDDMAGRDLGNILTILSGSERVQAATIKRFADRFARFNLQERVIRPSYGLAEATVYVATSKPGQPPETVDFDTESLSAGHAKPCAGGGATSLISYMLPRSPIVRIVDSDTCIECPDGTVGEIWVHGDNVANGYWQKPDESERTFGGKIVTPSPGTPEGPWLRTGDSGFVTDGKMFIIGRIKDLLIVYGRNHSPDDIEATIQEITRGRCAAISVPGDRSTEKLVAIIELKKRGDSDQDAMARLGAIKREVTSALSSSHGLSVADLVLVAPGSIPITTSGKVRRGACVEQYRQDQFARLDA

Aminopeptidase N = target: T4, Aminopeptidase N (Plasmodium falciparum FcB1/Columbia, UniProt O96935); experiment: P. falciparum M1AAP inhibitors, biochemical, fluorogenic H-Leu-NHMec substrate, 1536-well (AID 1445); set-up: species or system Plasmodium falciparum 3D7, 3D7
T4 sequence (O96935 whole entry): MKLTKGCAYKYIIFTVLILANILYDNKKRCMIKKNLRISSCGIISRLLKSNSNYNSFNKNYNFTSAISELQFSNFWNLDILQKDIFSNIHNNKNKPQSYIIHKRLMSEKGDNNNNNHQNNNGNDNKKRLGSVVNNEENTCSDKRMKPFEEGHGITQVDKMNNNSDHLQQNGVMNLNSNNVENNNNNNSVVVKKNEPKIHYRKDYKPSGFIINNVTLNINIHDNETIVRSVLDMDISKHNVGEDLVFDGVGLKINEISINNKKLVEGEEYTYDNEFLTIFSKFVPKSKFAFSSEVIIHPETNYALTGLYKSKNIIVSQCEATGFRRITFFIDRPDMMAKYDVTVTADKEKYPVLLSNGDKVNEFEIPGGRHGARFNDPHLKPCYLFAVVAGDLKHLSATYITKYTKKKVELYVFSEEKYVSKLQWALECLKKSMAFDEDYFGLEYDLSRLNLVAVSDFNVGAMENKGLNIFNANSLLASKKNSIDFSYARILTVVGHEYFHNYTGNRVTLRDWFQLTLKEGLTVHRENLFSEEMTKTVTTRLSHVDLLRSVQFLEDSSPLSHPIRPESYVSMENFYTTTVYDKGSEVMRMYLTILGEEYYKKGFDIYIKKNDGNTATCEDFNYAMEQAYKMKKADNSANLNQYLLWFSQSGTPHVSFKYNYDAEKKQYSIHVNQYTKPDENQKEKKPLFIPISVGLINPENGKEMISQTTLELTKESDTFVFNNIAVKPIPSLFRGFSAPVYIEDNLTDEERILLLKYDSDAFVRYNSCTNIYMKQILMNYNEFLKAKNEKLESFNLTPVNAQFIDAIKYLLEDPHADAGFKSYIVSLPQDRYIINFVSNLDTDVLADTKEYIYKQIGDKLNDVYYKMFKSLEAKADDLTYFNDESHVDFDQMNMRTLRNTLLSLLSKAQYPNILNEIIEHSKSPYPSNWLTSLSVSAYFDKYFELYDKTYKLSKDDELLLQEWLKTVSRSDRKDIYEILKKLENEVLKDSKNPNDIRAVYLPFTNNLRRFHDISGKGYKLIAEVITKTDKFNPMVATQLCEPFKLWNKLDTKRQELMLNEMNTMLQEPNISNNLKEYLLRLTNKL

[15] = inhibitors of intracellular T. cruzi replication, confirmation, NIH3T3 host cells, beta-gal luminescence (AID 2044); format: functional, cell-based;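 further: intracellular parasites grown in NIH/3T3 mouse fibroblasts as host cells; luminescent beta-galactosidase reporter signal from transgenic T. cruzi replicating inside host cells; inhibitors lower the luminescence signal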
[16] = cytotoxicity toward NIH3T3 fibroblasts, dose response, counter-screen, cell-based, ATP luminescence, mouse fibroblasts (AID 2010); format: functional;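 further: cells exposed to compound for about 90 hours before reading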
[17] = target: SWI/SNF-related matrix-associated actin-dependent regulator of chromatin subfamily A member 2 (Homo sapiens, UniProt P51531); experiment: Luminescence-based cell-based high throughput dose response assay to identify activators of the function of SWI/SNF related, matrix associated, actin dependent regulator of chromatin, subfamily a, member 2 (SMARCA2, BRM).; format: functional
[18] = Counterscreen for activators of the function of SWI/SNF related, matrix associated, actin dependent regulator of chromatin, subfamily a, member 2 (SMARCA2, BRM): Luminescence-based cell-based high throughput dose response assay to identify non-selective compounds using the VP16 reporter assay.; format: functional
[19] = target: T5, DNA repair protein RAD52 homolog (Homo sapiens, UniProt P43351); format: functional, biochemical
T5 sequence (P43351 whole entry): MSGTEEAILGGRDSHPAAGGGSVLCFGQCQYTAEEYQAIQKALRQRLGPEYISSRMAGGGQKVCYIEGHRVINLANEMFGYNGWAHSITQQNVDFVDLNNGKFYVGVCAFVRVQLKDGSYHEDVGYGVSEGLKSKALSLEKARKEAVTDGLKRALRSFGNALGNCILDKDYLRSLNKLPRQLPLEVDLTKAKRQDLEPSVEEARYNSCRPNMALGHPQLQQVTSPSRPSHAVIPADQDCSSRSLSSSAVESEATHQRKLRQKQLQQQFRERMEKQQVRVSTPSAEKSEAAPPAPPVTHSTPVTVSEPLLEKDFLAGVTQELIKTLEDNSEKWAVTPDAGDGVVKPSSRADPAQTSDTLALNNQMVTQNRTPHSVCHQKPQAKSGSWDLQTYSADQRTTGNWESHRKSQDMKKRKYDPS

Sequence of Protein Wnt-3a (P27467 whole entry): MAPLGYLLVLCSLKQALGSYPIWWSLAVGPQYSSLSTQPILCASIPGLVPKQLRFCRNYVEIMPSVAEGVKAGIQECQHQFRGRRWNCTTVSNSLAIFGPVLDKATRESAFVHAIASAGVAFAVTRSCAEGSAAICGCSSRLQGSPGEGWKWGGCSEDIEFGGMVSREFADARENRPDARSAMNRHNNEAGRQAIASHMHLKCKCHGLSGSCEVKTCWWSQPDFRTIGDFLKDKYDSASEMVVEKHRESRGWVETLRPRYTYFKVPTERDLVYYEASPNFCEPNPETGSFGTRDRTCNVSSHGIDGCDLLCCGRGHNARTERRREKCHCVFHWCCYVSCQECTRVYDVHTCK
Sequence of Voltage-dependent T-type calcium channel subunit alpha-1H (O95180 whole entry): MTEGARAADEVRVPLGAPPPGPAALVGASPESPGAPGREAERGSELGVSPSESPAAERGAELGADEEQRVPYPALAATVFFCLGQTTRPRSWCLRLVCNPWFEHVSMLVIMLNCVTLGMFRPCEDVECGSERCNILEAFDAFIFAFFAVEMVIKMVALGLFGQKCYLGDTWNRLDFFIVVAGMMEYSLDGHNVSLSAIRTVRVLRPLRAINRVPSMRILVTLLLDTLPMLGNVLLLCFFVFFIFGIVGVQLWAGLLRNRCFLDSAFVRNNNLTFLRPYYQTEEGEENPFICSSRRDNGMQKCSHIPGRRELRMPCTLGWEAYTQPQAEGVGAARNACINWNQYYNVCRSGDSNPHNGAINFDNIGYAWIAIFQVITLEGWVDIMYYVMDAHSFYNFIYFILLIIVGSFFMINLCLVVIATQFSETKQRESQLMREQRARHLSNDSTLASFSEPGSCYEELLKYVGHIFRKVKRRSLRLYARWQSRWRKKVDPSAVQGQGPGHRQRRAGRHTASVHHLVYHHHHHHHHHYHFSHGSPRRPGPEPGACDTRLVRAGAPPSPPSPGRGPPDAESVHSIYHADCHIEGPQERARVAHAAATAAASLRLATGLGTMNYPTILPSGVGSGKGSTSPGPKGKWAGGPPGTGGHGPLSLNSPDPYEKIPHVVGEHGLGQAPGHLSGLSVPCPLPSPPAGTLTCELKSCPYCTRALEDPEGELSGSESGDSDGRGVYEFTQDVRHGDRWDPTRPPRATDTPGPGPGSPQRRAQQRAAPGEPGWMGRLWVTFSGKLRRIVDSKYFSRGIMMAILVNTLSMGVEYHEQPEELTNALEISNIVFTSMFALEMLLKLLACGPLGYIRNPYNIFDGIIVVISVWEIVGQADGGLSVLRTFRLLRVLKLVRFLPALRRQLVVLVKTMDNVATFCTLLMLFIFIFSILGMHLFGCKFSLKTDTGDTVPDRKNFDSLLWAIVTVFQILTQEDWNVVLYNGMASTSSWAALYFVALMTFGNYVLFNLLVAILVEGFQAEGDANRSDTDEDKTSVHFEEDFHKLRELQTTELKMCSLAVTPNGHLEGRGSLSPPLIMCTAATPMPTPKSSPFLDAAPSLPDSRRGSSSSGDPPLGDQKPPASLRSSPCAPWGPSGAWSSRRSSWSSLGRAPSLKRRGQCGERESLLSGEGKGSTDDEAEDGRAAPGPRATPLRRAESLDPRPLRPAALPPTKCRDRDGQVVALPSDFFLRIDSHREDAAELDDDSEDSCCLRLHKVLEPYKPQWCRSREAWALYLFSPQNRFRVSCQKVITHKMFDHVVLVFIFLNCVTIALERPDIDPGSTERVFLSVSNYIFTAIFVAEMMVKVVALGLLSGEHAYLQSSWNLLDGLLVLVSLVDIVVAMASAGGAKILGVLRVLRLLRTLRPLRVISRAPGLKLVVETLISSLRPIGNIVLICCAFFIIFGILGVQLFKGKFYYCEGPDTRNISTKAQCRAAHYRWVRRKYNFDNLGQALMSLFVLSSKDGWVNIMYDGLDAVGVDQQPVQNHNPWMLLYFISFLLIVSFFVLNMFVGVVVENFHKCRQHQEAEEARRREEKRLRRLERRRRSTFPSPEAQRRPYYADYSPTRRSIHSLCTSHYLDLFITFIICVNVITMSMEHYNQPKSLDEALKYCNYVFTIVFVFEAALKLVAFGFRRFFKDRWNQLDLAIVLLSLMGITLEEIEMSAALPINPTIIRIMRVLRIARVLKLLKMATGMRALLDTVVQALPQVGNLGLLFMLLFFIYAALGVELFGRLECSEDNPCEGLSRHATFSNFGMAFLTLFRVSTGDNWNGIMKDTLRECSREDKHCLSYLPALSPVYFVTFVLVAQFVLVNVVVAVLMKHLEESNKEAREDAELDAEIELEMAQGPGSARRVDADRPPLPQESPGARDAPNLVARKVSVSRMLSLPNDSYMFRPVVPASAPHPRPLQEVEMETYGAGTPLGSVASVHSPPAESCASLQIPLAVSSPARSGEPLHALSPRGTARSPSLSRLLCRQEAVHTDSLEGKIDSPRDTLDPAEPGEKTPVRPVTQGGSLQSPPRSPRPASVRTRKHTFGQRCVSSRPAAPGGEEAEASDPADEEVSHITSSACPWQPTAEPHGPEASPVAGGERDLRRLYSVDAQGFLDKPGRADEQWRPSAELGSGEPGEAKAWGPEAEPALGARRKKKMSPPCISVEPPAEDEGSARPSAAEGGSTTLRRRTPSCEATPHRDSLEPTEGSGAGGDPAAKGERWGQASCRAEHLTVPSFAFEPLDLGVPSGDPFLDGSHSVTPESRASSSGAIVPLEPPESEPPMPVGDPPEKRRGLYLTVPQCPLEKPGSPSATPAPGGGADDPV
Sequence of SWI/SNF-related matrix-associated actin-dependent regulator of chromatin subfamily A member 2 (P51531 whole entry): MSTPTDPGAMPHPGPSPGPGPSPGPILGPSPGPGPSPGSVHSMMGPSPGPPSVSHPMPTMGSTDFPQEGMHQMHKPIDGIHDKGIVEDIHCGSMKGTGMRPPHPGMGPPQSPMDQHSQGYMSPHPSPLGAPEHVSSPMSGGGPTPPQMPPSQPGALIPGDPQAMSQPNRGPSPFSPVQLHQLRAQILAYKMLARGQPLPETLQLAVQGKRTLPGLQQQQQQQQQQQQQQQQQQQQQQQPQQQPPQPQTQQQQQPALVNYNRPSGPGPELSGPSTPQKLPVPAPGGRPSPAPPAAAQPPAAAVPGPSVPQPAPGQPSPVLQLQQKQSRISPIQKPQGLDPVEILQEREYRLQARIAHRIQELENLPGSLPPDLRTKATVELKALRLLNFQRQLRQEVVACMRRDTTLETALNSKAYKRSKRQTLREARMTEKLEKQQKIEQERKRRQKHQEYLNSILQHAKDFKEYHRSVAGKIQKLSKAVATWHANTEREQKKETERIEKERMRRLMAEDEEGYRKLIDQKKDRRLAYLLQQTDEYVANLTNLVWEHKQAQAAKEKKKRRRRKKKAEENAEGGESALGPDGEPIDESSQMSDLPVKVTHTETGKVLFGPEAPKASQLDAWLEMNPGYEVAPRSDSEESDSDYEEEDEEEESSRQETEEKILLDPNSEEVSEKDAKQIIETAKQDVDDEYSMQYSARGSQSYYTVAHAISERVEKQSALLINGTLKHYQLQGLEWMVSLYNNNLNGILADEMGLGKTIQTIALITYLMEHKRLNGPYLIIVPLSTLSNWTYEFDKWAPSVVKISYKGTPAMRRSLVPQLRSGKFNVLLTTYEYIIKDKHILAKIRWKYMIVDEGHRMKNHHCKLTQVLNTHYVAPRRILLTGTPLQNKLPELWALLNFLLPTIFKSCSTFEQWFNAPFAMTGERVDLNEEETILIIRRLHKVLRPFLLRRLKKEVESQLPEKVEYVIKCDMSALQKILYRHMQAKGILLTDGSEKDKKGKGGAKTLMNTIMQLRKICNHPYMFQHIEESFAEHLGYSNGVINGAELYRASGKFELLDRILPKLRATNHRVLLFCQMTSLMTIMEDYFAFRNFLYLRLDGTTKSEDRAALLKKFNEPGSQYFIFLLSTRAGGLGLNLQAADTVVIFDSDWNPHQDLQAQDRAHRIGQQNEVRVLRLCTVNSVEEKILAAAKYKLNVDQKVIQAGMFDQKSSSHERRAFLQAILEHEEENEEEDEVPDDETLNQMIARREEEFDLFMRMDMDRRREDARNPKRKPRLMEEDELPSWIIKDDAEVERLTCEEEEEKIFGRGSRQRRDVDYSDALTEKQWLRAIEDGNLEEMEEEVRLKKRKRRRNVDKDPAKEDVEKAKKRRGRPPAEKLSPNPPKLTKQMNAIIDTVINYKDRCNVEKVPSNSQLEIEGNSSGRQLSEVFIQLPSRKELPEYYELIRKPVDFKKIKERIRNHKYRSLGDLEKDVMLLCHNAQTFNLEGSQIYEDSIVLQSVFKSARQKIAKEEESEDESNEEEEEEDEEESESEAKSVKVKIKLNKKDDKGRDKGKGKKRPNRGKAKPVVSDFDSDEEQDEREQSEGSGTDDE
Sequence of ATP-dependent molecular chaperone HSP82 (C4YTQ8 whole entry): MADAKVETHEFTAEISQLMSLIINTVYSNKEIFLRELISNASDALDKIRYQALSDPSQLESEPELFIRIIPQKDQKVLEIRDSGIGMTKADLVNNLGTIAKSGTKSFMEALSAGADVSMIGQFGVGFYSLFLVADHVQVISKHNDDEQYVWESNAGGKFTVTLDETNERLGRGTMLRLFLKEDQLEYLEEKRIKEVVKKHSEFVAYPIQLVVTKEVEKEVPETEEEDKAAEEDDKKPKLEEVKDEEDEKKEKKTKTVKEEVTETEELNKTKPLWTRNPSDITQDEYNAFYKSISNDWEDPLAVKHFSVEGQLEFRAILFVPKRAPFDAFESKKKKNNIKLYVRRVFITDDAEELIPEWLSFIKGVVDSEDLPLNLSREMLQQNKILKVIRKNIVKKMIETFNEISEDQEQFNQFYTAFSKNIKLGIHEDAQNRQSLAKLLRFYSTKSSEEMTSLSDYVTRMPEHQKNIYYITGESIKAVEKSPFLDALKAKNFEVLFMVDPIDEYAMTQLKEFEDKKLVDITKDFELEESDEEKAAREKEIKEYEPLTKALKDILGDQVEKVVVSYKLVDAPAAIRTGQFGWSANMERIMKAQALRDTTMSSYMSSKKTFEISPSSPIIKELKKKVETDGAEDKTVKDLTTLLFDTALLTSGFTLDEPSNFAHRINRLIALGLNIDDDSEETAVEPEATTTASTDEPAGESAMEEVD

Cc1cc(C)nc(NC(N)=Nc2ccccc2-c2ccccc2)n1
IC50 [1]: > 80 µM (inactive)
IC50 (Protein Wnt-3a): 16.9 µM (active)

O=C(Nc1nnc(-c2ccc3c(c2)CCCC3)o1)c1ccccc1
EC50 [2]: > 160 µM (inactive)
EC50 [3]: 0.229 µM (active)
EC50 [4]: > 180 µM (inactive)
EC50 [5]: 3.25 µM (active)
IC50 (H9c2): > 79 µM (inactive)
CC50 (Vero): > 25 µM (active)
EC50 [6]: 4.72 µM (active)
AC50 [7]: 4.89 µM (active)

NC(c1csc(NC(=O)Nc2cccc(Cl)c2)n1)c1ccccc1Cl (centres undefined)
AC50 [8]: 11.9 µM (active)
AC50 [9]: 16.4 µM (active)
AC50 [10]: 16.2 µM (active)
AC50 [11]: 29.4 µM (active)
AC50 [12]: 28.5 µM (active)

Nc1nc2ccccc2n1/N=C/c1ccc2c(c1)OCO2
IC50 [13]: 45.6 µM (inactive)

C/C(=N\Nc1ccc(C#N)cc1[N+](=O)[O-])c1ccc(O)cc1
IC50 [13]: 155 µM (inactive)

O=C(CCC(=O)Nc1ccc(F)cc1)N/N=C/c1c[nH]c2ccccc12
AC50 [14]: 49 µM (active)

Cc1nc(NC(=N)N)nc2c(C)cccc12
IC50 (Aminopeptidase N): 47.6 µM (active)
EC50 [15]: 0.371 µM (active)
EC50 [16]: > 60 µM (not active)
EC50 [17]: > 10.1 µM (inactive)
EC50 [18]: > 91.1 µM (inactive)
AC50 [19]: 1.4 µM (active)
